Experimental data: US20110288154A1, “RNA Interference Mediated Inhibition of Epithelial Sodium Channel (ENaC) Gene Expression Using Short Interfering Nucleic Acid (siNA)” (MERCK & CO., INC., priority 2008, published 2011)
[invAb] = inverted abasic unit; d = 2'-deoxy (DNA); m = 2'-O-methyl; r = 2'-OH (RNA); f = 2'-fluoro

Assays:
[1] = tested on: rSCNN1A (r ENaCα) mRNA; test: Screening of ENaCα siNAs in Rat H-4-II-E cells (quantitative RT-PCR); type: cell-based; design: Percent Reduction of the r ENaCα mRNA relative to a non-targeting control siNA (NTCs) / Rat % KD (efficacy of ENaCα mRNA knockdown): concentration or dose not given beside the values; details: Rat H-4-II-E cells, n = 3; for Mean (rSCNN1A expression normalized to the level of rGAPDH) / Percent Reduction of the r ENaCα mRNA relative to a non-targeting control siNA (NTCs) / Avg GAPDH Expression (rGAPDH): 24 hours post-transfection; for Avg ENaCα Expression (rSCNN1A): harvested 24 hours post-transfection; for Avg GAPDH Expression (rGAPDH): housekeeping gene used for normalisation
Method: (§1) A series of probes and primers were used to detect the various mRNA transcripts of the genes of ENaCa and GAPDH in mouse, rat, and human cell lines. The assays were performed on an ABI 7500 instrument, according to the manufacturer's instructions. Within each experiment, the baseline was set in the exponential phase of the amplification curve, and based on the intersection point of the baselines with the amplification curve, a Ct value was assigned by the instrument. This Ct value was then assigned a QTY value based on the Standard Curve. The standard curve in the various experiments herein used 1 ng to 300 ng of RNA extracted from the same cell line used for the experimental transfections.
(§2) All IC50 values were calculated from the data using GraphPad Prizm software, specifically a sigmoidal, variable slope curve for simple ligand binding. Also, unless otherwise indicated, all calculations of the efficacy and potency (e.g., % knockdown) of the siNAs were done relative to a non-targeting control siNA. If reported, P-values were computed using The Students t-test, including the Welch Correction for unequal variances.
(§3) In all of the calculations of the % knock-down of mRNA, the calculation was made relative to the normalized level of expression of the gene of interest in the samples treated with the non-targeting control (NTC) unless otherwise indicated. The gene of interest expression level was divided by the level of expression of GAPDH or 36B4 (depending on the species) in each sample. The three replicates for each condition in each experiment were averaged and the standard deviation of those samples was calculated. The following formula was then used to calculate the % of knock-down of the gene of interest:
(§4) The ENaCα siNAs were designed and synthesized as described previously. The siNAs were screened in three cell lines. Human A549 cells, mouse NIH 3T3 and Rat H-4-II-E cells. The data from the screen of ENaCa siNAs in all three species is shown in Tables 3a, 3b, 4a, 4b, 5a, and 5b and a summary of the data for certain siNA molecules is presented in Table 6. Each screen was performed at 24 hrs. The decision to use this time point was based upon the degree of knockdown of the mRNA seen at that time point.

[2] = tested on: mSCNN1A mRNA; test: Screening of ENaCα siNAs in mouse NIH 3T3 cells (quantitative RT-PCR); type: cell-based; design: Percent Reduction of the mSCNN1A mRNA relative to a non-targeting control siNA / Mouse % KD (efficacy of ENaCα mRNA knockdown): concentration or dose not given beside the values; details: mouse NIH 3T3 cells, n = 3; for Mean (mSCNN1A expression normalized to the level of m36B4) / Percent Reduction of the mSCNN1A mRNA relative to a non-targeting control siNA / Avg 36B4 Expression: 24 hours post-transfection; for Avg ENaCα Expression (mSCNN1A): harvested 24 hours post-transfection; for Avg 36B4 Expression: housekeeping gene used for normalisation
Method: siNA constructs (Table 1b) may be tested for efficacy in reducing ENaC RNA expression in, for example, A549 human lung carcinoma cells. A549 (human; ATCC cat# CCL-185) cells were cultured at 37° C. in the presence of 5% CO2 and grown in Ham's F12K medium with 2 mM L-glutamine adjusted to contain 1.5 g/L sodium bicarbonate and supplemented with fetal bovine serum at a final concentration of 10% and 100 U/mL penicillin. The A549 cells were plated approximately 24 hours before transfection in 96-well plates at 7,500 cells/well, 100 μl/well. After 24 hours complexes containing siNA and Lipofectamine 2000 (Invitrogen) were created as follows: a solution of Lipofectamine 2000 in OPTI-MEM was prepared containing Lipofectamine 2000 at a final concentration of 14 μg/ml. In parallel, solutions of the siNAs were prepared in OPTI-MEM at a final concentration of 150 nM. After both solutions were incubated at 20° C. for 20 minutes an equal volume of the siNA solutions and the Lipofectamine 2000 solution were added together for each of the siNAs. The resultant solution has the siNAs at a final concentration of 75 nM and Lipofectamine 2000 at a final concentration of 7 μg/ml. This solution was incubated at 20° C. for 20 minutes. After incubation 50 μl of the solution were added to each of the wells (in triplicate). The final concentration of siNA in each well was 25 nM and the final concentration of Lipofectamine 2000 in each well was 2.33 μg/ml. The plates were incubated for 48 hours with no change of media before harvesting. Dose response curves were determined in a similar manner with each concentration being done in triplicate and maintaining a constant amount of Lipofectamine 2000 in each transfection.
as §1, §2, §3, §4

## B AAccGCAuGAAGAcGGccu TTB / AGGccGucuucAuGcGGuuUU (chain 1 AACCGCAUGAAGACGGCCUTT; chain 2 AGGCCGUCUUCAUGCGGUUUU; siRNA; chain 1: sugars from the 5' end ddffdddfdddddfddfffdd, [invAb] at 5' end, 3' end, backbone not given here; chain 2: sugars from the 5' end rrrffmfffffmfmfmmffmm, backbone not given here) [Site 337]
[1]
  Mean (rSCNN1A expression normalized to the level of rGAPDH): 0.96
  Percent Reduction of the r ENaCα mRNA relative to a non-targeting control siNA (NTCs): 25.4%
  Avg ENaCα Expression (rSCNN1A): 16.40
  Avg GAPDH Expression (rGAPDH): 17.17
[2]
  Mean (mSCNN1A expression normalized to the level of m36B4): 0.24
  Percent Reduction of the mSCNN1A mRNA relative to a non-targeting control siNA: 0.8%
  Avg ENaCα Expression (mSCNN1A): 3.42
  Avg 36B4 Expression: 14.44

## B AAccuGGGcAGccAGuGGA TTB / UCCAcuGGcuGcccAGGuuUU (sense AACCUGGGCAGCCAGUGGATT; antisense UCCACUGGCUGCCCAGGUUUU; siRNA; sense: sugars from the 5' end ddfffdddfddffddfddrdd, [invAb] at 5' end, 3' end, backbone not given here; antisense: sugars from the 5' end rrrmffmmffmfffmmmffmm, backbone not given here) [Site 1747]
[1]
  Mean (rSCNN1A expression normalized to the level of rGAPDH): 0.56
  Percent Reduction of the r ENaCα mRNA relative to a non-targeting control siNA (NTCs): 39.5%
  Avg ENaCα Expression (rSCNN1A): 23.39
  Avg GAPDH Expression (rGAPDH): 41.88
[2]
  Mean (mSCNN1A expression normalized to the level of m36B4): 0.15
  Percent Reduction of the mSCNN1A mRNA relative to a non-targeting control siNA: −6.1%
  Avg ENaCα Expression (mSCNN1A): 3.67
  Avg 36B4 Expression: 25.19

## B AGccAGuGGAGccuGuGGu TTB / ACCAcAGGcuccAcuGGcuUU (sense AGCCAGUGGAGCCUGUGGUTT; antisense ACCACAGGCUCCACUGGCUUU; siRNA; sense: DNA at AGT, 2'-fluoro at CU, [invAb] at 5' end, 3' end, backbone not given here; antisense: sugars from the 5' end rrrmfmmmffffmffmmffmm, backbone not given here) [Site 1756]
[1]
  Mean (rSCNN1A expression normalized to the level of rGAPDH): 0.57
  Percent Reduction of the r ENaCα mRNA relative to a non-targeting control siNA (NTCs): 38.3%
  Avg ENaCα Expression (rSCNN1A): 23.08
  Avg GAPDH Expression (rGAPDH): 40.27
[2]
  Mean (mSCNN1A expression normalized to the level of m36B4): 0.12
  Percent Reduction of the mSCNN1A mRNA relative to a non-targeting control siNA: 13.5%
  Avg ENaCα Expression (mSCNN1A): 2.58
  Avg 36B4 Expression: 21.66

## B AGuGuGGcuGuGccuAcAu TTB / AUGuAGGcAcAGccAcAcuUU (sense AGUGUGGCUGUGCCUACAUTT; antisense AUGUAGGCACAGCCACACUUU; siRNA; sense: DNA at AGT, 2'-fluoro at CU, [invAb] at 5' end, 3' end, backbone not given here; antisense: sugars from the 5' end rrrfmmmfmfmmffmfmffmm, backbone not given here) [Site 1382]
[1]
  Mean (rSCNN1A expression normalized to the level of rGAPDH): 0.84
  Percent Reduction of the r ENaCα mRNA relative to a non-targeting control siNA (NTCs): 34.5%
  Avg ENaCα Expression (rSCNN1A): 22.02
  Avg GAPDH Expression (rGAPDH): 26.11
[2]
  Mean (mSCNN1A expression normalized to the level of m36B4): 0.21
  Percent Reduction of the mSCNN1A mRNA relative to a non-targeting control siNA: 10.7%
  Avg ENaCα Expression (mSCNN1A): 2.94
  Avg 36B4 Expression: 13.77

## B AccGcAuGAAGAcGGccuu TTB / AAGGccGucuucAuGcGGuUU (chain 1 ACCGCAUGAAGACGGCCUUTT; chain 2 AAGGCCGUCUUCAUGCGGUUU; siRNA; chain 1: DNA at AGT, 2'-fluoro at CU, [invAb] at 5' end, 3' end, backbone not given here; chain 2: sugars from the 5' end rrrmffmfffffmfmfmmfmm, backbone not given here) [Site 338]
[1]
  Mean (rSCNN1A expression normalized to the level of rGAPDH): 0.79
  Percent Reduction of the r ENaCα mRNA relative to a non-targeting control siNA (NTCs): 38.7%
  Avg ENaCα Expression (rSCNN1A): 14.22
  Avg GAPDH Expression (rGAPDH): 18.42
[2]
  Mean (mSCNN1A expression normalized to the level of m36B4): 0.26
  Percent Reduction of the mSCNN1A mRNA relative to a non-targeting control siNA: −9.5%
  Avg ENaCα Expression (mSCNN1A): 3.24
  Avg 36B4 Expression: 12.29

## B AccuGGGcAGccAGuGGAG TTB / CUCcAcuGGcuGcccAGGuUU (sense ACCUGGGCAGCCAGUGGAGTT; antisense CUCCACUGGCUGCCCAGGUUU; siRNA; sense: DNA at AGT, 2'-fluoro at CU, [invAb] at 5' end, 3' end, backbone not given here; antisense: sugars from the 5' end rrrfmffmmffmfffmmmfmm, backbone not given here) [Site 1748]
[1]
  Mean (rSCNN1A expression normalized to the level of rGAPDH): 0.60
  Percent Reduction of the r ENaCα mRNA relative to a non-targeting control siNA (NTCs): 34.7%
  Avg ENaCα Expression (rSCNN1A): 26.11
  Avg GAPDH Expression (rGAPDH): 43.45
[2]
  Mean (mSCNN1A expression normalized to the level of m36B4): 0.15
  Percent Reduction of the mSCNN1A mRNA relative to a non-targeting control siNA: −12.7%
  Avg ENaCα Expression (mSCNN1A): 4.06
  Avg 36B4 Expression: 26.15

## B GGGcAGccAGuGGAGccuG TTB / CAGGcuccAcuGGcuGcccUU (sense GGGCAGCCAGUGGAGCCUGTT; antisense CAGGCUCCACUGGCUGCCCUU; siRNA; sense: DNA at AGT, 2'-fluoro at CU, [invAb] at 5' end, 3' end, backbone not given here; antisense: sugars from the 5' end rrrmffffmffmmffmfffmm, backbone not given here) [Site 1752]
[1]
  Mean (rSCNN1A expression normalized to the level of rGAPDH): 0.44
  Percent Reduction of the r ENaCα mRNA relative to a non-targeting control siNA (NTCs): 52.1%
  Avg ENaCα Expression (rSCNN1A): 19.23
  Avg GAPDH Expression (rGAPDH): 43.83
[2]
  Mean (mSCNN1A expression normalized to the level of m36B4): 0.11
  Percent Reduction of the mSCNN1A mRNA relative to a non-targeting control siNA: 19.8%
  Avg ENaCα Expression (mSCNN1A): 3.21
  Avg 36B4 Expression: 29.27

## B GGcAGccAGuGGAGccuGu TTB / ACAGGcuccAcuGGcuGccUU (sense GGCAGCCAGUGGAGCCUGUTT; antisense ACAGGCUCCACUGGCUGCCUU; siRNA; sense: DNA at AGT, 2'-fluoro at CU, [invAb] at 5' end, 3' end, backbone not given here; antisense: sugars from the 5' end rrrmmffffmffmmffmffmm, backbone not given here) [Site 1753]
[1]
  Mean (rSCNN1A expression normalized to the level of rGAPDH): 0.59
  Percent Reduction of the r ENaCα mRNA relative to a non-targeting control siNA (NTCs): 35.4%
  Avg ENaCα Expression (rSCNN1A): 24.59
  Avg GAPDH Expression (rGAPDH): 41.36
[2]
  Mean (mSCNN1A expression normalized to the level of m36B4): 0.12
  Percent Reduction of the mSCNN1A mRNA relative to a non-targeting control siNA: 9.6%
  Avg ENaCα Expression (mSCNN1A): 3.13
  Avg 36B4 Expression: 25.27
